US20250109127A1, “METHODS OF USE OF PHENOXYPROPYLAMINE COMPOUNDS TO TREAT DEPRESSION” (Minerva Neurosciences, Inc., priority 2013, published 2025)
“And” between values parts separate entries of the source, which are not always exact repeats. Equal entries are not always repeated. Structures can show the parent of a compound that is named as a salt.

System: HVA release in the rat prefrontal cortex
Assay: Microdialysis: HVA release in prefrontal cortex after I.P. administration
Assay type: in vivo
Conditions: for HVA (% of respective basal), individual animal: 0.1 mg/kg I.P., c2-c9 = R#13,14,20,19,25,26,31,32; for HVA (% of respective basal), individual animal / HVA release, individual animals: hydrochloride; for HVA release, MEAN / HVA release, individual animals: 0.3 mg/kg I.P.; for HVA release, MEAN / HVA release (% of basal levels) measured in dialysates, MEAN: n = 8; for HVA release, individual animals: one column per animal R#11,12,18,23,29,30,17,24; for HVA release (% of basal levels) measured in dialysates, MEAN: SON-117 3 mg/kg IP
Experimental: The aim of the study was to evaluate, using microdialysis, the effects of an intraperitoneal (I.P.) administration in rats of three different doses of SON-117 on dopamine and its metabolites, serotonin and its metabolite (5-HIAA), and norepinephrine levels in prefrontal cortex.
Thirty-two adult male Wistar rats were used for the whole study (4 groups of eight animals planned for the study, Table 1).
Surgery was performed on rats weighing about 300 g at the beginning of the experiments. Rats were anaesthetized with Ketamine (50 mg/kg) & Xylazine (15 mg/kg) by intramuscular administration. The animals were placed in a stereotaxic apparatus in the flat-skull position at a constant setting of −3.3 mm between ear bars and the incisor bar. The animals were treated with a local anesthesic (xylocaine 1%, Astra Zeneca) and an analgesic (Temgesic, from Schering Plough, 0.05 mg/kg, s.c.). A rostrocaudal midline incision was made with a lancet to expose the dorsal skull surface. The “stereotaxic zero” was defined by the Bregma in accordance with Paxinos and Watson's atlas (1986). A hole was drilled in the skull with a drill and the meninges were pierced with a sterile needle to implant a CMA12 guide cannula which later received the dialysis probe.
Coordinates used for implanting guide cannula in prefrontal cortex from Bregma were anteroposterior 3.7 mm, mediolateral 0.8 mm, and dorsoventral −2 mm (top of the probe was at −5 mm). The guide cannula was fixed to the skull with two stainless steel screws (1.88 mm outside diameter) anchored. An application of dental cement was added. A plastic collar allowed each animal to be tethered to a Swivel assembly of the CMA 120 awake animal system. Following surgery, rats were kept in individual cages and allowed to recover for a minimum of 3-5 days before the experimentation. The rats were handled and put in plastic bowl for 10 min at least every day to habituate the animals to their new environment for the dialysis. An I.P. administration with saline was also performed every day.
Dialysis probes (CMA12/3 mm, membrane, 20 kD cut-off, Carnegie Medicine, Stockholm, Sweden), were carefully washed before inserting into the guide cannula. The wash was performed with the artificial cerebrospinal fluid (aCSF) medium (NaCl 147 mM, KCl 2.7 mM, CaCl2 1.2 mM, MgCl2 0.85 mM) at room temperature. The dialysis system was then equilibrated at 20° C. at a perfusion rate of 1 μl/min with a Carnegie pump (CMA100). All catheters (FEP tubing, internal volume of 1.2 μl/10 cm, and tubing adaptors) used for microdialysis were treated in the same conditions.
The probes duly prepared were inserted into the guide cannula and the CMA120 Swivel assembly secured to the animal using a plastic collar. Flow through the dialysis probe with aCSF was maintained at a rate of 1 μl/min during the whole experimentation. The first four fractions (corresponding to 2 hours) were discarded to avoid the effects of parenchymal disturbance and to ensure that an approximate steady-state level was reached. Fractions were then collected over a period of 8.5 h during which time the animals remained quiet. The dialysates were automatically collected with an autosampler (microfraction collector CMA 140, Carnegie Medicin) and stored at −80° C. until analysis. […] Perfusion was then maintained for 7 hours with aCSF. The dialysates (30 μl) were collected into 300 μl vials, transferred into dry ice and then kept frozen (−80° C.) until analysis. Frozen samples were shipped to a partner for analysis. At the end of the microdialysis study, a PBS with colored ink was perfused through the probe in order to visualize the dialyzed area.
Catecholamine assay: Concentrations of dopamine, DOPAC, HVA, 5-HIAA, 5-HT, and norepinephrin were determined for each sample by HPLC coupled with electrochemical detection.

Cc1nnc(-c2cc3c(OC[C@@H](O)CN4CCC(c5ccc(Cl)c(Cl)c5)CC4)cccc3o2)o1 [SON-117, (S)-1-(4-(3,4-dichlorophenyl)piperidino)-3-(2-(5-methyl-1,3,4-oxadiazol-2-yl)benzo(b)furan-4-yloxy)-2-propanol hydrochloride]
HVA (% of respective basal), individual animal (T30-T1 h): 116.26 % of respective basal and 107.34 % of respective basal and 108.66 % of respective basal and 130.85 % of respective basal and 120.36 % of respective basal and 141.88 % of respective basal and 123.41 % of respective basal and 95.76 % of respective basal | HVA (% of respective basal), individual animal (T1 h 30-T2 h): 97.75 % of respective basal and 109.52 % of respective basal and 89.93 % of respective basal and 170.371 % of respective basal and 123.81 % of respective basal and 97.71 % of respective basal and 126.7 % of respective basal and 80.99 % of respective basal | HVA (% of respective basal), individual animal (T1 h-T1 h 30): 124.25 % of respective basal and 162.58 % of respective basal and 98.567 % of respective basal and 241.96 % of respective basal and 130.93 % of respective basal and 153.68 % of respective basal and 123.58 % of respective basal and 80.09 % of respective basal | HVA (% of respective basal), individual animal (T2 h 30-T3 h): 88.46 % of respective basal and 123.19 % of respective basal and 75.76 % of respective basal and 151.82 % of respective basal and 149.48 % of respective basal and 157.13 % of respective basal and 121.53 % of respective basal and 21.68 % of respective basal | HVA (% of respective basal), individual animal (T2 h-T2 h 30): 83.46 % of respective basal and 121.21 % of respective basal and 80.97 % of respective basal and 145.084 % of respective basal and 132.39 % of respective basal and 106.30 % of respective basal and 139.18 % of respective basal and 53.45 % of respective basal | HVA (% of respective basal), individual animal (T3 h 30-T4 h): 94.31 % of respective basal and 116.57 % of respective basal and 55.89 % of respective basal and 152.08 % of respective basal and 193.52 % of respective basal and 154.95 % of respective basal and 123.32 % of respective basal and 16.37 % of respective basal | HVA (% of respective basal), individual animal (T3 h-T3 h 30): 135.42 % of respective basal and 99.88 % of respective basal and 73.47 % of respective basal and 137.35 % of respective basal and 137.07 % of respective basal and 115.93 % of respective basal and 133.06 % of respective basal and 20.75 % of respective basal | HVA (% of respective basal), individual animal (T4 h 30-T5 h): 128.74 % of respective basal and 102.18 % of respective basal and 100.29 % of respective basal and 40.6 % of respective basal and 130.76 % of respective basal and 136.09 % of respective basal and 114.46 % of respective basal and 68.31 % of respective basal | HVA (% of respective basal), individual animal (T4 h-T4 h 30): 149.58 % of respective basal and 107.72 % of respective basal and 55.17 % of respective basal and 173.59 % of respective basal and 155.95 % of respective basal and 149.97 % of respective basal and 148.42 % of respective basal and 76.98 % of respective basal | HVA (% of respective basal), individual animal (T5 h 30-T6 h): 146.23 % of respective basal and 127.63 % of respective basal and 35.72 % of respective basal and 136.22 % of respective basal and 116.99 % of respective basal and 123.45 % of respective basal and 128.36 % of respective basal and 65.12 % of respective basal | HVA (% of respective basal), individual animal (T5 h-T5 h 30): 143.02 % of respective basal and 149.35 % of respective basal and 36.52 % of respective basal and 131.08 % of respective basal and 120.77 % of respective basal and 117.84 % of respective basal and 126.17 % of respective basal and 77.12 % of respective basal | HVA (% of respective basal), individual animal (T6 h 30-T7 h): 155.64 % of respective basal and 142.57 % of respective basal and 54.30 % of respective basal and 131.80 % of respective basal | HVA (% of respective basal), individual animal (T6 h-T6 h 30): 149.66 % of respective basal and 147.03 % of respective basal and 11.88 % of respective basal and 133.32 % of respective basal and 118.76 % of respective basal and 122.29 % of respective basal and 121.40 % of respective basal and 66.42 % of respective basal | HVA release, MEAN (T0-T30 min): 107.04 % of respective basal | HVA release, MEAN (T30-T1 h): 94.37 % of respective basal | HVA release, individual animals (T30-T1 h): 76.21 % of respective basal and 55.15 % of respective basal and 89.64 % of respective basal and 100.95 % of respective basal and 83.39 % of respective basal and 95.38 % of respective basal and 149.36 % of respective basal and 104.86 % of respective basal | HVA release, MEAN (T1 h 30-T2 h): 85.59 % of respective basal | HVA release, individual animals (T1 h 30-T2 h): 89.77 % of respective basal and 59.14 % of respective basal and 96.89 % of respective basal and 103.49 % of respective basal and 82.49 % of respective basal and 54.42 % of respective basal and 95.23 % of respective basal and 103.32 % of respective basal | HVA release, MEAN (T1 h-T1 h 30): 120.85 % of respective basal | HVA release, individual animals (T1 h-T1 h 30): 90.43 % of respective basal and 68.90 % of respective basal and 103.82 % of respective basal and 116.53 % of respective basal and 80.54 % of respective basal and 85.72 % of respective basal and 305.74 % of respective basal and 115.15 % of respective basal | HVA release, MEAN (T2 h 30-T3 h): 107.95 % of respective basal | HVA release, individual animals (T2 h 30-T3 h): 72.76 % of respective basal and 59.51 % of respective basal and 90.20 % of respective basal and 316.58 % of respective basal and 70.98 % of respective basal and 94.71 % of respective basal and 54.48 % of respective basal and 104.42 % of respective basal | HVA release, MEAN (T2 h-T2 h 30): 85.33 % of respective basal | HVA release, individual animals (T2 h-T2 h 30): 68.39 % of respective basal and 70.39 % of respective basal and 95.76 % of respective basal and 101.52 % of respective basal and 72.96 % of respective basal and 85.03 % of respective basal and 97.42 % of respective basal and 91.18 % of respective basal | HVA release, MEAN (T3 h 30-T4 h): 90.45 % of respective basal | HVA release, individual animals (T3 h 30-T4 h): 64.18 % of respective basal and 83.25 % of respective basal and 133.74 % of respective basal and 64.93 % of respective basal and 107.52 % of respective basal and 70.49 % of respective basal and 109.07 % of respective basal | HVA release, MEAN (T3 h-T3 h 30): 85.22 % of respective basal | HVA release, individual animals (T3 h-T3 h 30): 63.81 % of respective basal and 90.24 % of respective basal and 111.62 % of respective basal and 62.71 % of respective basal and 98.55 % of respective basal and 74.57 % of respective basal and 95.05 % of respective basal | HVA release, MEAN (T4 h 30-T5 h): 85.23 % of respective basal | HVA release, individual animals (T4 h 30-T5 h): 91.96 % of respective basal and 80.15 % of respective basal and 68.04 % of respective basal and 115.19 % of respective basal and 50.60 % of respective basal and 77.44 % of respective basal and 98.06 % of respective basal and 100.39 % of respective basal | HVA release, MEAN (T4 h-T4 h 30): 85.20 % of respective basal | HVA release, individual animals (T4 h-T4 h 30): 92.27 % of respective basal and 67.44 % of respective basal and 79.90 % of respective basal and 118.84 % of respective basal and 74.80 % of respective basal and 79.15 % of respective basal and 73.39 % of respective basal and 95.82 % of respective basal | HVA release, MEAN (T5 h 30-T6 h): 83.81 % of respective basal | HVA release, individual animals (T5 h 30-T6 h): 88.34 % of respective basal and 70.37 % of respective basal and 54.74 % of respective basal and 111.90 % of respective basal and 57.33 % of respective basal and 69.05 % of respective basal and 120.47 % of respective basal and 98.25 % of respective basal | HVA release, MEAN (T5 h-T5 h 30): 72.11 % of respective basal | HVA release, individual animals (T5 h-T5 h 30): 33.79 % of respective basal and 37.83 % of respective basal and 125.18 % of respective basal and 104.80 % of respective basal and 54.92 % of respective basal and 81.46 % of respective basal and 45.38 % of respective basal and 93.54 % of respective basal | HVA release, MEAN (T6 h 30-T7 h): 82.40 % of respective basal | HVA release, individual animals (T6 h 30-T7 h): 80.98 % of respective basal and 79.92 % of respective basal and 57.44 % of respective basal and 123.91 % of respective basal and 59.14 % of respective basal and 77.28 % of respective basal | HVA release, MEAN (T6 h-T6 h 30): 78.87 % of respective basal | HVA release, individual animals (T6 h-T6 h 30): 80.55 % of respective basal and 69.54 % of respective basal and 51.01 % of respective basal and 121.49 % of respective basal and 63.35 % of respective basal and 86.74 % of respective basal and 63.13 % of respective basal and 95.14 % of respective basal | HVA release, MEAN (T-30 min-T0 (before administration)): 101.32 % of respective basal | HVA release, MEAN (T-1 h 30-T-1 h (before administration)): 95.27 % of respective basal | HVA release, MEAN (T-1 h-T-30 min (before administration)): 103.42 % of respective basal | HVA dialysate levels vs mean pre-administration value (SON-117 0.1 mg/kg I.P.): no statistically significant differences | HVA dialysate levels vs mean pre-administration value (SON-117 0.3 mg/kg IP): no statistically significant differences | HVA release (% of basal levels) measured in dialysates, MEAN (T0-T30 min): 94.34 % of basal levels | HVA release (% of basal levels) measured in dialysates, MEAN (T30-T1 h): 98.30 % of basal levels
